Data on 27 molecules can be found in US10392347B2, “2,4-dihydroxy-nicotinamides as APJ agonists” (BRISTOL-MYERS SQUIBB COMPANY, priority 2015, dated 2019).

The structures appear in SMILES notation.

For orientation: EC50 means the concentration giving half of the maximal effect.

The first test addresses T1, human APJ receptor (Homo sapiens, UniProt P35414).
T1 construct: expressed in transfected cells
T1 sequence (P35414 1-380): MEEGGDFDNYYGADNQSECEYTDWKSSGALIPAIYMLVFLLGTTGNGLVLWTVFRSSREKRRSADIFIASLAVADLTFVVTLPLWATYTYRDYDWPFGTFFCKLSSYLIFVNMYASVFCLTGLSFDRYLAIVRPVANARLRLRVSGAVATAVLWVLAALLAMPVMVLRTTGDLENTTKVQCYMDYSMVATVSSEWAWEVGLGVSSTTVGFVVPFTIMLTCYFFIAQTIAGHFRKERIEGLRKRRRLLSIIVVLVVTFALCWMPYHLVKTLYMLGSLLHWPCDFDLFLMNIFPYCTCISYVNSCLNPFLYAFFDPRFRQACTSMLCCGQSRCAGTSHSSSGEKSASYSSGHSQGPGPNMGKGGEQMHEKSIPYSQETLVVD
Briefly: Intracellular cAMP accumulation assay (APJ hcAMP, HTRF). It is filed as cell-based. As to conditions: APJ cAMP EC50 (nM), Table 1; HEK293 cells stably expressing human APJ, forskolin-stimulated cAMP. As to the method:
Intracellular cAMP Accumulation Assay
HEK293 cells stably expressing human APJ receptor were used to assess the activity of compounds. Cultured cells were detached and resuspended in the cAMP Homogeneous Time-Resolved Fluorescence (HTRF) assay buffer (Cisbio cat; #62AM4PEJ). […] Serial dilutions of a compound together with assay buffer containing […] and 2 μM forskolin were added to each well containing 5,000 cells and incubated for 30 minutes at room temperature. Subsequently, cAMP D2 reagent was added in the lysis buffer followed by the EuK antibody (Cisbio; cat #62AM4PEJ) and incubated for 60 min. The fluorescence emission ratio was measured using fluorometer. The intracellular cAMP concentrations (compound-stimulated inhibition of forskolin-mediated cAMP production) were calculated by extrapolation from a standard curve using known cAMP concentrations. The EC50 values were obtained by fitting the data to a sigmoidal concentration-response curve with variable slope.
The EC50 value of each compound is presented at the end of the example description.
The biological activity of the exemplified compounds of this invention determined by the assay described above is shown at the end of each example.
For orientation: cAMP levels reflect the balance of adenylyl cyclase and phosphodiesterase activity.
In turn, `CCCCc1[nH]c(=O)c(C(=O)N(C)CCc2ccc(Cl)cc2)c(O)c1-c1c(OC)cccc1OC` [Example 27, 6-butyl-N-[2-(4-chlorophenyl)ethyl]-5-(2,6-dimethoxyphenyl)-2,4-dihydroxy-N-methylpyridine-3-carboxamide] gave an EC50 of 10 to 100 nM.

Staying with this test, now noted: Table 1; HEK293 cells stably expressing human APJ, forskolin-stimulated cAMP; read-out: APJ cAMP EC50.
Consider `CCCCc1nc(O)c(C(=O)N2CCN(Cc3cccc(F)c3)CC2)c(O)c1-c1c(OC)cccc1OC` [Example 45, 6-butyl-5-(2,6-dimethoxyphenyl)-3-{4-[(3-fluorophenyl)methyl]piperazine-1-carbonyl}pyridine-2,4-diol], for which the EC50 lay within 0.01 to 10 nM.
As to `CCCCc1nc(O)c(C(=O)N2CCN(c3ccc(OCCOC)cc3)CC2)c(O)c1-c1c(OC)cccc1OC` [Example 7, 6-butyl-5-(2,6-dimethoxyphenyl)-3-{4-[4-(2-methoxyethoxy)phenyl]piperazine-1-carbonyl}pyridine-2,4-diol], the EC50 fell in the range of 100 to 300 nM.
Still for that read-out and setting: the result for `CCCCc1nc(O)c(C(=O)N2CCC(c3nc4ccccc4s3)CC2)c(O)c1-c1c(OC)cccc1OC` [Example 48, 3-[4-(1,3-benzothiazol-2-yl)piperidine-1-carbonyl]-6-butyl-5-(2,6-dimethoxyphenyl)pyridine-2,4-diol] reads 10 to 100 nM.
The same measure, in the same setting: the figure for `CCCCc1nc(O)c(C(=O)N2CCCN(c3nnnn3-c3ccccc3)CC2)c(O)c1-c1c(OC)cccc1OC` [Example 53, 6-butyl-5-(2,6-dimethoxyphenyl)-3-[4-(1-phenyl-1H-1,2,3,4-tetrazol-5-yl)-1,4-diazepane-1-carbonyl]pyridine-2,4-diol] is 10 to 100 nM.
On the same count and under the same terms, the figure for `CCCCc1nc(O)c(C(=O)N2CCN(c3ccc(NC(=O)OC)cc3)CC2)c(O)c1-c1c(OC)cccc1OC` [Example 10, methyl N-(4-{4-[6-butyl-5-(2,6-dimethoxyphenyl)-2,4-dihydroxypyridine-3-carbonyl]piperazin-1-yl}phenyl)carbamate] is 10 to 100 nM.
Regarding `CCCCc1nc(O)c(C(=O)N2CCN(C(=O)c3cccc(F)c3)CC2)c(O)c1-c1c(OC)cccc1OC` [Example 42, 6-butyl-5-(2,6-dimethoxyphenyl)-3-[4-(3-fluorobenzoyl)piperazine-1-carbonyl]pyridine-2,4-diol], the EC50 fell in the range of 0.01 to 10 nM.
Same read-out and setting: the figure for `CCCCc1nc(O)c(C(=O)N2CCN(c3ccccc3Cl)CC2)c(O)c1-c1c(OC)cccc1OC` [Example 57, 6-butyl-3-[4-(2-chlorophenyl)piperazine-1-carbonyl]-5-(2,6-dimethoxyphenyl)pyridine-2,4-diol] is 10 to 100 nM.

Still in this test, the particulars now being: Table 3; HEK293 cells stably expressing human APJ, forskolin-stimulated cAMP; read-out: APJ cAMP EC50.
Take `CCCCc1nc(O)c(C(=O)N2CCC(c3ncccc3F)C2)c(O)c1-c1c(OC)cccc1OC` (stereo not drawn) [Example 78, 6-butyl-5-(2,6-dimethoxyphenyl)-3-[3-(3-fluoropyridin-2-yl)pyrrolidine-1-carbonyl]pyridine-2,4-diol]: the EC50 fell in the range of 0.01 to 10 nM.
Turning to `CCCCc1nc(O)c(C(=O)N2CCC(c3ncc(F)cc3F)C2)c(O)c1-c1c(OC)cccc1OC` (stereo not drawn) [Example 83, 6-butyl-3-[3-(3,5-difluoropyridin-2-yl)pyrrolidine-1-carbonyl]-5-(2,6-dimethoxyphenyl)pyridine-2,4-diol], the EC50 lay within 0.01 to 10 nM.
On the same count and under the same terms, the figure for `CCCCc1nc(O)c(C(=O)N2CCC(c3ccc(F)cn3)C2)c(O)c1-c1c(OC)cccc1OC` (stereo not drawn) [Example 79, 6-butyl-5-(2,6-dimethoxyphenyl)-3-[3-(5-fluoropyridin-2-yl)pyrrolidine-1-carbonyl]pyridine-2,4-diol] is 0.01 to 10 nM.

The test is the same for the next values; noted with them: Table 4; HEK293 cells stably expressing human APJ, forskolin-stimulated cAMP; read-out: Human cAMP EC50.
`CCCCc1nc(O)c(C(=O)N2CC(NC(=O)c3ccccc3)C2)c(O)c1-c1c(OC)cccc1OC` [Example 98, N-{1-[6-butyl-5-(2,6-dimethoxyphenyl)-2,4-dihydroxypyridine-3-carbonyl]azetidin-3-yl}benzamide]: the EC50 is 0.01 to 10 nM.
The same measure, in the same setting: the figure for `CCCCc1nc(O)c(C(=O)N2CCC(Cc3ccccc3C)CC2)c(O)c1-c1c(OC)cccc1OC` [Example 106, 6-butyl-5-(2,6-dimethoxyphenyl)-3-{4-[(2-methylphenyl)methyl]piperidine-1-carbonyl}pyridine-2,4-diol] is 0.01 to 10 nM.
The same measure, in the same setting: the figure for `CCCCc1nc(O)c(C(=O)N2CCN(Cc3cccc(Cl)n3)CC2)c(O)c1-c1c(OC)cccc1OC` [Example 123, 6-butyl-3-{4-[(6-chloropyridin-2-yl)methyl]piperazine-1-carbonyl}-5-(2,6-dimethoxyphenyl)pyridine-2,4-diol] is 0.01 to 10 nM; for `CCCCc1nc(O)c(C(=O)N2CCC(Oc3ccccc3)CC2)c(O)c1-c1c(OC)cccc1OC` [Example 92, 6-butyl-5-(2,6-dimethoxyphenyl)-3-(4-phenoxypiperidine-1-carbonyl)pyridine-2,4-diol] it is 0.01 to 10 nM; for `CCCCc1nc(O)c(C(=O)N2CC[C@@H](c3ccccc3)C2)c(O)c1-c1cc(OC)ccc1OC` [Example 96, 6-butyl-5-(2,5-dimethoxyphenyl)-3-[(3S)-3-phenylpyrrolidine-1-carbonyl]pyridine-2,4-diol] it is 0.01 to 10 nM.
Same read-out and setting: the figure for `CCOCc1nc(O)c(C(=O)N2CCN(Cc3cccc(F)c3)CC2)c(O)c1-c1c(OC)cccc1OC` [Example 90, 5-(2,6-dimethoxyphenyl)-6-(ethoxymethyl)-3-{4-[(3-fluorophenyl)methyl]piperazine-1-carbonyl}pyridine-2,4-diol] is 10 to 100 nM; for `CCCCc1nc(O)c(C(=O)N2CCN(Cc3cc(F)ccc3F)CC2)c(O)c1-c1c(OC)cccc1OC` [Example 122, 6-butyl-3-{4-[(2,5-difluorophenyl)methyl]piperazine-1-carbonyl}-5-(2,6-dimethoxyphenyl)pyridine-2,4-diol] it is 0.01 to 10 nM.
In the case of `CCCCc1nc(O)c(C(=O)N2CC(NS(=O)(=O)c3cccc(F)c3F)C2)c(O)c1-c1c(OC)cccc1OC` [Example 118, N-{1-[6-butyl-5-(2,6-dimethoxyphenyl)-2,4-dihydroxypyridine-3-carbonyl]azetidin-3-yl}-2,3-difluorobenzene-1-sulfonamide], the EC50 is 0.01 to 10 nM.
For `CCCCc1nc(O)c(C(=O)N2CCN(Cc3cccc(Cl)c3Cl)CC2)c(O)c1-c1cc(OC)ccc1OC` [Example 103, 6-butyl-3-{4-[(2,3-dichlorophenyl)methyl]piperazine-1-carbonyl}-5-(2,5-dimethoxyphenyl)pyridine-2,4-diol], the EC50 was in the range of 0.01 to 10 nM.
As for `CCCCc1nc(O)c(C(=O)N2CCN(Cc3ccc(Cl)cc3Cl)CC2)c(O)c1-c1c(OC)cccc1OC` [Example 93, 6-butyl-3-{4-[(2,4-dichlorophenyl)methyl]piperazine-1-carbonyl}-5-(2,6-dimethoxyphenyl)pyridine-2,4-diol], the concentration giving a half-maximal response (EC50) is 0.01 to 10 nM.
For the molecule `CCCCc1nc(O)c(C(=O)N2CCN(Cc3ccccn3)CC2)c(O)c1-c1c(OC)cccc1OC` [Example 101, 6-butyl-5-(2,6-dimethoxyphenyl)-3-[4-(pyridin-2-ylmethyl)piperazine-1-carbonyl]pyridine-2,4-diol], the EC50 was in the range of 0.01 to 10 nM.

The same test, now with this note: Table 6; HEK293 cells stably expressing human APJ, forskolin-stimulated cAMP; read-out: Human cAMP EC50.
Take `CCOCc1nc(O)c(C(=O)N2CCC(c3ccc(F)cc3F)C2)c(O)c1-c1c(OC)cccc1OC` (stereo not drawn) [Example 132, 3-[3-(2,4-difluorophenyl)pyrrolidine-1-carbonyl]-5-(2,6-dimethoxyphenyl)-6-(ethoxymethyl)-4-hydroxy-1,2-dihydropyridin-2-one]: the EC50 was 0.01 to 10 nM.
On the same count and under the same terms, the result for `CCOCc1nc(O)c(C(=O)N2CC[C@H](OCc3ccccc3)C2)c(O)c1-c1c(OC)cccc1OC` [Example 137, 3-[(3S)-3-(benzyloxy)pyrrolidine-1-carbonyl]-5-(2,6-dimethoxyphenyl)-6-(ethoxymethyl)pyridine-2,4-diol] reads 10 to 100 nM.

Still in this test, the particulars now being: Table 7; HEK293 cells stably expressing human APJ, forskolin-stimulated cAMP; read-out: Human cAMP EC50.
Turning to `CCCCc1nc(O)c(C(=O)N2CCC(c3ncc(F)cc3F)C2)c(O)c1-c1cccc(OC)c1` (stereo not drawn) [Example 143, 6-butyl-3-[3-(3,5-difluoropyridin-2-yl)pyrrolidine-1-carbonyl]-5-(3-methoxyphenyl)pyridine-2,4-diol], the EC50 was 0.01 to 10 nM.
The same measure, in the same setting: the result for `CCCCc1nc(O)c(C(=O)N2CCC(c3ncc(F)cc3F)C2)c(O)c1-c1cccc(OC)c1` (stereo not drawn) [Example 142, 6-butyl-3-[3-(3,5-difluoropyridin-2-yl)pyrrolidine-1-carbonyl]-5-(3-methoxyphenyl)pyridine-2,4-diol] reads 0.01 to 10 nM; that for `CCCCc1nc(O)c(C(=O)N2CCC(c3ncc(F)cc3F)C2)c(O)c1-c1cccc(C(C)C)c1` (stereo not drawn) [Example 140, 6-butyl-3-[3-(3,5-difluoropyridin-2-yl)pyrrolidine-1-carbonyl]-5-[3-(propan-2-yl)phenyl]pyridine-2,4-diol], 0.01 to 10 nM.
